Experimental data as given in patent US6914045B2, “Glycopeptide antibiotics” (Wyeth Holdings Corporation, priority 2001, dated 2005).
Values after ≈ are worked out from the molar mass of the structure shown.

Key:
Test in all cases: in vitro antibacterial evaluation, MIC by broth dilution
Type in all cases: cell-based
Enterococcus sp. = settings: broth dilution, 18 hours at 35° C.
Method: (§1) Methods for in vitro Antibacterial Evaluation (Table 1)
(§2) The minimum inhibitory concentration (MIC), the lowest concentration of the antibiotic which inhibits growth of the test organism, is determined by the broth dilution method using Muller-Hinton II […] (Baltimore Biological Laboratories) following the recommendations of the National Committee for Clinical Laboratory Standards [Methods for dilution antimicrobial susceptibility tests for bacteria that grow aerobically, approved standard M7-A2, National Committee for Clinical Laboratory Standards, Villanova, Pa.].
(§3) An inoculum level of 5×10^5 CFU/mL, and a range of antibiotic concentrations (64-0.06 μg/mL) is used. […] The test organisms include a spectrum of Gram-positive bacteria comprised of Staphylococcus sp., Streptococcus sp. and Enterococcus sp. These organisms include recent clinical isolates that are resistant to methicillin, penicillin and/or vancomycin.

Staphylococcus sp. = system: Staphylococcus sp.
Method: as §1, §2, §3

Escherichia coli = settings: 18 hours at 35° C.
Method: as §2, §3

[1] = Enterococcus faecalis (ATCC 29212)
[2] = Enterococcus faecalis (GC 4552)
[3] = broth dilution, 18 hours at 35° C.
[4] = strain ATCC 29213; broth dilution, 18 hours at 35° C.
[5] = strain GC 1131; broth dilution, 18 hours at 35° C.
[6] = strain GC 4535; broth dilution, 18 hours at 35° C.
[7] = strain GC 4536; broth dilution, 18 hours at 35° C.

MIC Enterococcus faecalis (ATCC 29212) (Enterococcus sp.; [1]) [µg/mL] | MIC Enterococcus faecalis (GC 4552) (Enterococcus sp.; [2]) [µg/mL] | MIC Enterococcus faecalis (ATCC 29212) (Enterococcus sp.) [µg/mL] | MIC Enterococcus faecalis (GC 2242) (Enterococcus sp.) [µg/mL] | MIC Enterococcus faecalis (GC 4552) (Enterococcus sp.) [µg/mL] | MIC Coagulase Negative Staphylococcus (GC 4537) (Staphylococcus sp.; [3]) [µg/mL] | MIC Coagulase Negative Staphylococcus (GC 4538) (Staphylococcus sp.; [3]) [µg/mL] | MIC Coagulase Negative Staphylococcus (GC 4547) (Staphylococcus sp.; [3]) [µg/mL] | MIC Staphylococcus aureus (ATCC 29213) (Staphylococcus sp.; [4]) [µg/mL] | MIC Staphylococcus aureus (GC 1131) (Staphylococcus sp.; [5]) [µg/mL] | MIC Staphylococcus aureus (GC 4535) (Staphylococcus sp.; [6]) [µg/mL] | MIC Staphylococcus aureus-SMITH (GC 4536) (Staphylococcus sp.; [7]) [µg/mL] | MIC Escherichia coli (GC 4559) (Escherichia coli) [µg/mL] | MIC Escherichia coli (GC 4560) (Escherichia coli) [µg/mL] | SMILES | also measured
32 (≈ 23 µM) | 32 (≈ 23 µM) | 32 (≈ 23 µM) | 16 (≈ 11.5 µM) | 32 (≈ 23 µM) | 8 (≈ 5.74 µM) | 4 (≈ 2.87 µM) | 4 (≈ 2.87 µM) | 4 (≈ 2.87 µM) | 4 (≈ 2.87 µM) | 8 (≈ 5.74 µM) | 4 (≈ 2.87 µM) | >64 | 2 (≈ 1.44 µM) | CCCCCC(=O)OCC1OC(Oc2ccc(CC3NC(=O)C(C(C)c4ccccc4)NC(=O)CNC(=O)C(CO)NC(=O)C(C(O)C4CNC(=N)N4C4OC(CO)C(O)C(O)C4O)NC(=O)C(C(O)C4CNC(=N)N4)NC3=O)cc2)C(O)C(O)C1OC1OC(CO)C(O)C(O)C1O (stereo not drawn) [Example 95a, Cyclo[glycyl-β-methylphenylalanyl-O-(6-O-hexanoyl-4-O-hexopranosylhexopyranosyl)-tyrosyl-3-(2-iminoimidazolidin-4-yl)sery-3-(3-hexopyranosyl-2-iminoimidazolidin-4-yl)-serylseryl]] | MIC Enterococcus faecalis (GC 2242) (Enterococcus sp.; strain GC 2242): 16 µg/mL (≈ 11.5 µM); MIC Coagulase Negative Staphylococcus (GC 4537) (Staphylococcus sp.; strain GC 4537; broth dilution, 18 hours at 35° C.): 8 µg/mL (≈ 5.74 µM); MIC Coagulase Negative Staphylococcus (GC 4538) (Staphylococcus sp.; strain GC 4538; broth dilution, 18 hours at 35° C.): 4 µg/mL (≈ 2.87 µM); MIC Coagulase Negative Staphylococcus (GC 4547) (Staphylococcus sp.; strain GC 4547; broth dilution, 18 hours at 35° C.): 4 µg/mL (≈ 2.87 µM)
8 (≈ 5.68 µM) | 16 (≈ 11.4 µM) | 8 (≈ 5.68 µM) | 4 (≈ 2.84 µM) | 16 (≈ 11.4 µM) | 4 (≈ 2.84 µM) | 2 (≈ 1.42 µM) | 2 (≈ 1.42 µM) | 1 (≈ 0.711 µM) | 2 (≈ 1.42 µM) | 2 (≈ 1.42 µM) | 0.5 (≈ 0.355 µM) | >64 | 1 (≈ 0.711 µM) | CCCCCCC(=O)OCC1OC(Oc2ccc(CC3NC(=O)C(C(C)c4ccccc4)NC(=O)CNC(=O)C(CO)NC(=O)C(C(O)C4CNC(=N)N4C4OC(CO)C(O)C(O)C4O)NC(=O)C(C(O)C4CNC(=N)N4)NC3=O)cc2)C(O)C(O)C1OC1OC(CO)C(O)C(O)C1O (stereo not drawn) [Example 97a, Cyclo[glycyl-β-methylphenylalanyl-O-(6-O-heptanoyl-4-O-hexopyranosylhexopyranosyl)-tyrosyl-3-(2-iniinoimidazolidin-4-yl)seryl-3-(3-hexopyranosyl-2-iminoimidazolidin-4-yl)-serylseryl]] | MIC Enterococcus faecalis (GC 2242) (Enterococcus sp.; Enterococcus faecalis (GC 2242)): 4 µg/mL (≈ 2.84 µM); MIC Coagulase Negative Staphylococcus (GC 4537) (Staphylococcus sp.; broth dilution, 18 hours at 35° C.; strain GC 4537): 4 µg/mL (≈ 2.84 µM); MIC Coagulase Negative Staphylococcus (GC 4538) (Staphylococcus sp.; broth dilution, 18 hours at 35° C.; strain GC 4538): 2 µg/mL (≈ 1.42 µM); MIC Coagulase Negative Staphylococcus (GC 4547) (Staphylococcus sp.; broth dilution, 18 hours at 35° C.; strain GC 4547): 2 µg/mL (≈ 1.42 µM)
